Experiment: Pharmacokinetics after oral capsules (sCT plus Dmt-DALDA with citric acid and lauroyl carnitine), non-enteric coated or enteric coated, in fasted beagle dogs (plasma; ELISA for sCT, HPLC-MS for Dmt-DALDA)
Type: in vivo
Settings: for AUC / Cmax: normalized to a 1 mg dose; for Tmax / Cmax: beagle, dog, plasma, oral; for plasma peptide concentration normalized to a 1 mg dose: enteric coated capsule
Procedure: A second series of tests was carried out, as noted above, using beagle dogs. […] In the experiments represented in FIGS. 2A and 2B, size 00 […] capsules were each filled with 758 mg of a powdered blend consisting of citric acid (643 mg), lauroyl carnitine (66 mg), talc (33 mg), salmon calcitonin (sCT) (13 mg) and Dmt-DALDA (2.4 mg). Half of the capsules were coated with an enteric coating solution of L30D-55, while the remaining 50% of the capsules were not coated. Four fasted dogs were each given 1 uncoated capsule, and 2 weeks later they were each given an enteric coated capsule. After administration of each capsule, samples of blood were taken at 15 minute intervals from an indwelling catheter for up to 4 hours. The blood samples were centrifuged and the resulting plasma supernatants were stored frozen at −20° C. The plasma samples were subsequently analyzed for sCT by a direct ELISA, and for Dmt-DALDA by HPLC-mass spectrometry performed as set forth in Wan, H. and Desiderio, D., Quantitation of [DMT^1] DALDA in ovine plasma by on-line liquid chromatography/quadrapole time-of-flight mass spectrometry, Rapid Communications in Mass Spectrometry, 2003; 17, 538-546, the contents of which are incorporated herein by reference.
The results summarized in FIGS. 2A and 2B as plasma peptide concentration normalized to a 1 mg dose as a function of time relative to the average Tmax, (i.e., the time at which the maximum amount of peptide was detected) indicate that both peptides, i.e., sCT and Dmt-DALDA, were detected in dogs given uncoated or enteric coated capsules. […] Table DI (below) sets forth the values upon which the curves in FIGS. 2A and 2B are based. The results are summarized in the tables as plasma peptide concentration normalized to a 1 mg dose as a function of time. Table III, moreover, provides the standard deviations for the data obtained regarding each of the test dogs, which standard deviations are also indicated in FIGS. 2A and 2B.
Table IV (below) summarizes the pharmacokinetic parameters in dogs of orally administered sCT and Dmt-DALDA when administered in non-enteric coated versus enteric coated capsules. Peptide was not detected from 1 dog in each group due to (a) Dog 3 vomiting the uncoated capsule and (b) delayed gastric emptying in Dog 2 provided with an enteric coated capsule. Cmax and AUC are as defined with regard to Table H above.

[1] = Non-Enteric Capsule, Avg (n = 3)

CC(C)C[C@H](NC(=O)[C@H](CCCCN)NC(=O)CNC(=O)[C@H](CC(C)C)NC(=O)[C@@H](NC(=O)[C@@H]1CSSC[C@H](N)C(=O)N[C@@H](CO)C(=O)N[C@@H](CC(N)=O)C(=O)N[C@@H](CC(C)C)C(=O)N[C@@H](CO)C(=O)N[C@@H]([C@@H](C)O)C(=O)N1)C(C)C)C(=O)N[C@@H](CO)C(=O)N[C@@H](CCC(N)=O)C(=O)N[C@@H](CCC(=O)O)C(=O)N[C@@H](CC(C)C)C(=O)N[C@@H](Cc1c[nH]cn1)C(=O)N[C@@H](CCCCN)C(=O)N[C@@H](CC(C)C)C(=O)N[C@@H](CCC(N)=O)C(=O)N[C@H](C(=O)N[C@@H](Cc1ccc(O)cc1)C(=O)N1CCC[C@H]1C(=O)N[C@@H](CCCNC(=N)N)C(=O)N[C@H](C(=O)N[C@@H](CC(N)=O)C(=O)N[C@H](C(=O)NCC(=O)N[C@@H](CO)C(=O)NCC(=O)N[C@H](C(=O)N1CCC[C@H]1C(N)=O)[C@@H](C)O)[C@@H](C)O)[C@@H](C)O)[C@@H](C)O [sCT, salmon calcitonin]
AUC (Enteric Capsule, Avg (n = 3)): 788317 pg/mL-min | AUC (Enteric Capsule, Dog 1): 1178504 pg/mL-min | AUC (Enteric Capsule, Dog 2 (delayed gastric emptying)): 0 pg/mL-min | AUC (Enteric Capsule, Dog 3): 522432 pg/mL-min | AUC (Enteric Capsule, Dog 4): 664016 pg/mL-min | AUC [1]: 69539 pg/mL-min | AUC (Non-Enteric Capsule, Dog 1): 79620 pg/mL-min | AUC (Non-Enteric Capsule, Dog 2): 103772 pg/mL-min | AUC (Non-Enteric Capsule, Dog 3 (vomited capsule)): 0 pg/mL-min | AUC (Non-Enteric Capsule, Dog 4): 25227 pg/mL-min | Tmax (Enteric Capsule, Avg (n = 3)): 105 min | Cmax (Enteric Capsule, Avg (n = 3)): 17.2 ng/mL | Cmax (Enteric Capsule, Dog 1): 25.1 ng/mL | Tmax (Enteric Capsule, Dog 3): 135 min | Cmax (Enteric Capsule, Dog 3): 13.2 ng/mL | Tmax (Enteric Capsule, Dog 4): 120 min | Cmax (Enteric Capsule, Dog 4): 13.1 ng/mL | Tmax [1]: 30 min | Cmax [1]: 2.26 ng/mL | Tmax (Non-Enteric Capsule, Dog 1): 30 min | Cmax (Non-Enteric Capsule, Dog 1): 2.65 ng/mL | Tmax (Non-Enteric Capsule, Dog 2): 30 min | Cmax (Non-Enteric Capsule, Dog 2): 3.15 ng/mL | Tmax (Non-Enteric Capsule, Dog 4): 30 min | Cmax (Non-Enteric Capsule, Dog 4): 0.971 ng/mL | Cmax and AUC, enteric coated capsules versus non enteric-coated capsules (dogs): significantly enhanced | amount of peptide detected in plasma, enteric coated capsules vs non-coated capsules (dogs): nearly eight times as much | time at which the maximum concentration was seen (dogs given coated capsules): 105 min | time at which the maximum concentration was seen (dogs given uncoated capsules): 30 min | plasma peptide concentration normalized to a 1 mg dose (Dog 1, 0 min): 0 pg/mL | plasma peptide concentration normalized to a 1 mg dose (Dog 1, 15 min): 0 pg/mL | plasma peptide concentration normalized to a 1 mg dose (Dog 1, 30 min): 407 pg/mL | plasma peptide concentration normalized to a 1 mg dose (Dog 1, 45 min): 22650 pg/mL | plasma peptide concentration normalized to a 1 mg dose (Dog 1, 60 min): 25136 pg/mL | plasma peptide concentration normalized to a 1 mg dose (Dog 1, 75 min): 6444 pg/mL | plasma peptide concentration normalized to a 1 mg dose (Dog 1, 90 min): 8167 pg/mL | plasma peptide concentration normalized to a 1 mg dose (Dog 1, 105 min): 4344 pg/mL | plasma peptide concentration normalized to a 1 mg dose (Dog 1, 120 min): 3193 pg/mL | plasma peptide concentration normalized to a 1 mg dose (Dog 1, 135 min): 2710 pg/mL | plasma peptide concentration normalized to a 1 mg dose (Dog 1, 150 min): 1706 pg/mL | plasma peptide concentration normalized to a 1 mg dose (Dog 1, 165 min): 1283 pg/mL | plasma peptide concentration normalized to a 1 mg dose (Dog 1, 180 min): 1301 pg/mL | plasma peptide concentration normalized to a 1 mg dose (Dog 1, 195 min): 459 pg/mL | plasma peptide concentration normalized to a 1 mg dose (Dog 1, 210 min): 347 pg/mL | plasma peptide concentration normalized to a 1 mg dose (Dog 2 (delayed gastric emptying), 0 min): 0 pg/mL | plasma peptide concentration normalized to a 1 mg dose (Dog 2 (delayed gastric emptying), 15 min): 0 pg/mL | plasma peptide concentration normalized to a 1 mg dose (Dog 2 (delayed gastric emptying), 30 min): 0 pg/mL | plasma peptide concentration normalized to a 1 mg dose (Dog 2 (delayed gastric emptying), 45 min): 0 pg/mL | plasma peptide concentration normalized to a 1 mg dose (Dog 2 (delayed gastric emptying), 60 min): 0 pg/mL | plasma peptide concentration normalized to a 1 mg dose (Dog 2 (delayed gastric emptying), 75 min): 0 pg/mL | plasma peptide concentration normalized to a 1 mg dose (Dog 2 (delayed gastric emptying), 90 min): 0 pg/mL | plasma peptide concentration normalized to a 1 mg dose (Dog 2 (delayed gastric emptying), 105 min): 0 pg/mL | plasma peptide concentration normalized to a 1 mg dose (Dog 2 (delayed gastric emptying), 120 min): 0 pg/mL | plasma peptide concentration normalized to a 1 mg dose (Dog 2 (delayed gastric emptying), 135 min): 0 pg/mL | plasma peptide concentration normalized to a 1 mg dose (Dog 2 (delayed gastric emptying), 150 min): 0 pg/mL | plasma peptide concentration normalized to a 1 mg dose (Dog 2 (delayed gastric emptying), 165 min): 0 pg/mL | plasma peptide concentration normalized to a 1 mg dose (Dog 2 (delayed gastric emptying), 180 min): 0 pg/mL | plasma peptide concentration normalized to a 1 mg dose (Dog 2 (delayed gastric emptying), 195 min): 0 pg/mL | plasma peptide concentration normalized to a 1 mg dose (Dog 2 (delayed gastric emptying), 210 min): 0 pg/mL | plasma peptide concentration normalized to a 1 mg dose (Dog 3, 0 min): 0 pg/mL | plasma peptide concentration normalized to a 1 mg dose (Dog 3, 15 min): 0 pg/mL | plasma peptide concentration normalized to a 1 mg dose (Dog 3, 30 min): 0 pg/mL | plasma peptide concentration normalized to a 1 mg dose (Dog 3, 45 min): 0 pg/mL | plasma peptide concentration normalized to a 1 mg dose (Dog 3, 60 min): 0 pg/mL
